Here are results for two molecules from US20240293558A1, “KRAS INHIBITOR CONJUGATES” (Erasca, Inc., priority 2021, published 2024).

SMILES strings stand for the structures. Where two headings read alike, the source gives them in different places.

One may read the DC50 as the concentration at which degradation of the target reaches its halfway point. The Dmax is the largest share of the target that was removed.

Holding throughout (format): cell-based
The target in one assay is T1, WT KRAS (Homo sapiens, UniProt P01116).
T1 construct: endogenous in cells; host or cells: HT-29 (ATCC HTB-38)
The experiment in a line: Degradation of KRAS wild type (WT) in HT-29 cells, Western blot. The conditions noted are these: HT-29 cell line, after 24 h treatment (FIG. 12). On the procedure:
This Example illustrates that embodiments of the present application degrade KRAS WT
HT-29 cells (ATCC HTB-38) expressing WT KRAS were grown in McCoy's 5a medium modified (ATCC cat #30-2007) supplemented with 10% fetal bovine serum, and Penicillin/Streptomycin. Cell were plated in 6-well tissue culture plates at a density of 1 million cells/well and allowed to attach for overnight. Diluted compounds were then added in a final concentration of 0.2% DMSO. After 24 hour treatment, the medium was removed, and the plate was washed three times with ice-cold PBS. 50ul of the RIPA cell lysis buffer (ThermoFisher 89901) supplemented with protease inhibitor (Roche 4693116001) and Phosphatase Cocktail A and B inhibitor (Bimake B15002; Bimake Houston TX) was added to each well, the adherent cells were scratched off, and transferred into pre-cold centrifuge tubes. […] The protein concentration of the supernatant was determined with bicinchoninic acid method (BCA) (ThermoFisher 23227). […]
The levels of KRAS protein were determined by Western blotting. […] The signal intensities of bands were quantified by Li-Cor Odyssey CLX.
The KRAS signals were normalized to the GAPDH signal for each lane and percent of DMSO values were calculated to determine the degradation of KRAS upon the compound treatment.
On the technique in general: A western blot detects proteins with antibodies after separation by electrophoresis.

For assay [1], the target named is T2, KRAS G12D (Homo sapiens, UniProt P01116, G12D). As to the kind of experiment: Degradation of KRas G12D in AsPC-1 cells, Western blot. Further details: endogenous in cells; host or cells: AsPC-1 (ATCC CRL-1682). The note with it: ASPC-1 cell line after 24 h treatment (FIG. 11); read-out: KRAS wild type degradation DC50.
The target in assay [2] is T2, KRAS G12D. The description is as above. On the set-up: endogenous in cells; host or cells: AsPC-1 (ATCC CRL-1682). On the procedure:
This Example illustrates that the compounds presented herein degrade KRAS G12D.
AsPC-1 cells (ATCC CRL-1682) expressing G12D were grown in RPMI-1640 medium supplemented with 10% fetal bovine serum, and Penicillin/Streptomycin. Cell were plated in 6-well tissue culture plates at a density of 1 million cells/well and allowed to attach for overnight. Diluted compounds were then added in a final concentration of 0.2% DMSO. After 24 hour treatment, the medium was removed, and the plate was washed three times with ice-cold PBS. 50ul of the RIPA cell lysis buffer (ThermoFisher 89901) supplemented with protease inhibitor (Roche 4693116001) and Phosphatase Cocktail A and B inhibitor (Bimake B15002; Bimake Houston TX) was added to each well, the adherent cells were scratched off, and transferred into pre-cold centrifuge tubes. After vigorous vortex, the tubes were incubated on ice for 30 minutes, centrifuged 14,000 rpm for 10 min at 4° C., and the supernatant were transferred into fresh tubes kept on ice. The protein concentration of the supernatant was determined with bicinchoninic acid method (BCA) (ThermoFisher 23227). Samples were prepared to the final concentration of 30ug in 20ul using NuPAGE LDS Sample Buffer (Invitrogen NP0007), NuPAGE Sample Reducing Agent (Invitrogen NP0009), and RIPA cell lysis buffer, and boiled at 95° C. for 15 minutes in water bath.
The levels of KRAS protein and phosphorylated ERK1/2 were determined by Western blotting. 20 μL of protein sample mixture was loaded into each well of 1.5 mm 4-12% Bis-Tris gel (Invitrogen NP0335), and run at 80V in stacking gel and 120 V in separating gel for about 2 h in MOPS running buffer (Invitrogen NP0001). The gel was transferred to the membrane (20V, 7 min) with Invitrogen iBlot2, and blocked with Li-Cor blocking buffer (LI-COR 927-60001; Li-Cor Biotechnology, Lincoln NE) for at least 1 h at room temperature. Primary antibodies diluted in the blocking buffer were added and incubated at 4° C. overnight. As the primary antibodies, KRAS (Proteintech 12063-1-AP), G12D Mutant Specific KRAS (Cell Signaling Technology 14429S), ERKI1/2 (Cell Signaling Technology 4695S), Phospho-ERKI1/2 (Cell Signaling Technology 4370S), and GAPDH (Millipore MAB374) were used. The membrane was washed 4 times with TBST (0.10% Tween20®; ThermoFisher 28360) for 5 minutes at room temperature, then incubated with Li-Cor anti-rabbit-800 (LI-COR 926-68070) and anti-mouse-680 (LI-COR-926-32211) diluted in Li-Cor blocking buffer with the ratio of 1:15,000 to visualize the primary antibodies for 1 hour at room temperature. Then membrane was washed 4 times with TBST (0.1% Tween20) 5 minutes. The signal intensities of bands were quantified by Li-Cor Odyssey CLX.
The KRas and phosphor-ERK1/2 signals were normalized to the GAPDH signal for each lane and percent of DMSO values were calculated to determine the degradation of KRas and the inhibition of ERK1/2 phosphorylation upon the compound treatment.

T2 sequence (P01116 1-188 isoform P01116-2 G12D): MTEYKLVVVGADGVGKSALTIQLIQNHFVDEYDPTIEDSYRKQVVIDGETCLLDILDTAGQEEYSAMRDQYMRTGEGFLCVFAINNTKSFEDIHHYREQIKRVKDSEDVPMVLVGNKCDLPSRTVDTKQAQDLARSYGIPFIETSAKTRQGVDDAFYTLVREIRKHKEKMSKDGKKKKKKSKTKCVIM
T1 sequence (P01116 1-188 isoform P01116-2): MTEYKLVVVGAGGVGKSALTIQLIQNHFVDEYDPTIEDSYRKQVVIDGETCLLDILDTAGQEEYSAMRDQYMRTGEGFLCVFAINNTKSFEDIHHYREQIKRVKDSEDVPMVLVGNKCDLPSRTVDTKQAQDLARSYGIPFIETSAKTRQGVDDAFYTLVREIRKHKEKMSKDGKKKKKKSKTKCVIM

With `C[C@H](NC(=O)[C@@H]1C[C@@H](O)CN1C(=O)[C@@H](NC(=O)CCOCCCN1CCC[C@H]1COc1nc(N2CC3CCC(C2)N3)c2cc(C(F)(F)F)c(-c3ccc(F)c4sc(N)c(C#N)c34)c(F)c2n1)C(C)(C)C)c1ccc(-c2c(F)cccc2F)cc1` (single isomer, unassigned) [Example 20], the half-maximal degradation concentration (DC50) at WT KRAS came out at 426 nM; at KRAS G12D [1], 8.2 nM.
On KRAS G12D [2] (ASPC1, AsPc-1 cell line after 24 h treatment), `Cc1ncsc1-c1ccc([C@H](C)NC(=O)[C@@H]2C[C@@H](O)CN2C(=O)[C@@H](NC(=O)CCOCCCN2CCCC2COc2nc(N3CC4CCC(C3)N4)c3cc(Cl)c(-c4ccc(F)c5sc(N)c(C#N)c45)c(F)c3n2)C(C)(C)C)cc1` (stereo partly drawn) [Example 8, (2S,4R)-1-[(2S)-2-[3-[3-[2-[[7-(2-amino-3-cyano-7-fluoro-benzothiophen-4-yl)-6-chloro-4-(3,8-diazabicyclo[3.2.1]octan-3-yl)-8-fluoro-quinazolin-2-yl]oxymethyl]pyrrolidin-1-yl]propoxy]propanoylamino]-3,3-dimethyl-butanoyl]-4-hydroxy-N-[(1S)-1-[4-(4-methylthiazol-5-yl)phenyl]ethyl]pyrrolidine-2-carboxamide] had a Dmax of 95%. The “KRAS G12D degradation (Western blot), result in words” value on KRAS G12D [2] (AsPC-1 cells, FIGS. 1-5) is on record as “Favorable results”. On KRAS G12D [2] (AsPc-1 cell line after 24 h treatment), the DC50 is 71 nM.
